Among the data in PMC6008489 (Bioorganic & Medicinal Chemistry, 2018) are inhibition values, retold here.

Like-named read-outs stand apart in the source and are kept apart here.

One assay concerns the target T1, SRC (Homo sapiens, UniProt P12931).
T1 construct: purchased Perkin Elmer (ProfilerPro assay kit 1)
The experiment in a line: 26-kinase panel mobility shift assay, single concentration. The settings on record: read-out: % Inhibition SRC. The class given is biochemical.

The next assay concerns the target T2, PRAK (Homo sapiens, UniProt Q8IW41).
T2 construct: purchased Perkin Elmer (ProfilerPro assay kit 1)
T2 sequence (Q8IW41 1-473): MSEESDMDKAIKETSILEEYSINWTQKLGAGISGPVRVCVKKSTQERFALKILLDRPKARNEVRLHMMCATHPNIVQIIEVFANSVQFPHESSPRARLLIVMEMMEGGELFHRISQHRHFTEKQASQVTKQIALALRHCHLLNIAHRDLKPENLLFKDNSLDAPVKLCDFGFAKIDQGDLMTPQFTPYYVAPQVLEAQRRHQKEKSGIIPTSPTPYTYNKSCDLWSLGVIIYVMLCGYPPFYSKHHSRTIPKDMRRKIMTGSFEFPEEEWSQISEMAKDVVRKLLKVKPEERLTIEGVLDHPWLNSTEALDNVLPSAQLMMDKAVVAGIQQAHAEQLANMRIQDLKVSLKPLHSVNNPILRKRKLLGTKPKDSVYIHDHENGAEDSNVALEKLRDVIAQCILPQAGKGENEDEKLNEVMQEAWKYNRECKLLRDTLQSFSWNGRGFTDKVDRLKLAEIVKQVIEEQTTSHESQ
The description is as above. The settings on record: read-out: % Inhibition PRAK. The class given is biochemical.

Another assay addresses T3, LCK (Homo sapiens, UniProt P06239).
T3 construct: purchased Perkin Elmer (ProfilerPro assay kit 1)
Described as above. The class given is biochemical. The settings on record: read-out: % Inhibition LCK.

The next assay deals with T4, AKT2 (Homo sapiens, UniProt P31751).
T4 construct: purchased Perkin Elmer ProfilerPro assay kit 1
T4 sequence (P31751 whole entry): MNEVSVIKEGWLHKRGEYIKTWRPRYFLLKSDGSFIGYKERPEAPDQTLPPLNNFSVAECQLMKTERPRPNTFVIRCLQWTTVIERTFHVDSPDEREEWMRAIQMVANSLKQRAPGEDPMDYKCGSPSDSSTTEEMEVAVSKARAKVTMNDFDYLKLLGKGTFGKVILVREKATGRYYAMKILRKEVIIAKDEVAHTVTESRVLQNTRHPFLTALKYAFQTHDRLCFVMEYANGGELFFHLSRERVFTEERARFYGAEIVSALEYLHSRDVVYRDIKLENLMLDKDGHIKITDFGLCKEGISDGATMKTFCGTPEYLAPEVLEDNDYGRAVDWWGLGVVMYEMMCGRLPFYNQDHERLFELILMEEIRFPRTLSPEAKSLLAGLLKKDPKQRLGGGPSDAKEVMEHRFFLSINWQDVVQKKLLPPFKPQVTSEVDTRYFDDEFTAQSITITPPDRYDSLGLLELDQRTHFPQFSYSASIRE
Described as above. The class given is biochemical. The settings on record: read-out: % Inhibition AKT2.

The target of a further assay is T5, Erk1 (Homo sapiens, UniProt P27361).
T5 construct: purchased Perkin Elmer (ProfilerPro assay kit 1)
T5 sequence (P27361 whole entry): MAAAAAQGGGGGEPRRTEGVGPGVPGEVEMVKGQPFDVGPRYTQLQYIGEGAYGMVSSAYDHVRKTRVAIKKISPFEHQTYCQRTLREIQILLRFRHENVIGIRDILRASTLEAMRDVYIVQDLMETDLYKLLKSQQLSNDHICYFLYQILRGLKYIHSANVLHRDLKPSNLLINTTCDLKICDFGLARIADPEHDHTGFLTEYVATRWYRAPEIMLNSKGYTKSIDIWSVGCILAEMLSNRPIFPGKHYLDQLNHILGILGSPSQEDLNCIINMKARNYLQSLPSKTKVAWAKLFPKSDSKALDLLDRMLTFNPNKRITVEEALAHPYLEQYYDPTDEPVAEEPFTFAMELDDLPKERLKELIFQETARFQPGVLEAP
The description is as above. The class given is biochemical. Conditions: read-out: % Inhibition Erk1.

For a further assay, the target named is T6, PKD2 (Homo sapiens, UniProt Q9BZL6).
T6 construct: purchased Perkin Elmer (ProfilerPro assay kit 1)
T6 sequence (Q9BZL6 1-878): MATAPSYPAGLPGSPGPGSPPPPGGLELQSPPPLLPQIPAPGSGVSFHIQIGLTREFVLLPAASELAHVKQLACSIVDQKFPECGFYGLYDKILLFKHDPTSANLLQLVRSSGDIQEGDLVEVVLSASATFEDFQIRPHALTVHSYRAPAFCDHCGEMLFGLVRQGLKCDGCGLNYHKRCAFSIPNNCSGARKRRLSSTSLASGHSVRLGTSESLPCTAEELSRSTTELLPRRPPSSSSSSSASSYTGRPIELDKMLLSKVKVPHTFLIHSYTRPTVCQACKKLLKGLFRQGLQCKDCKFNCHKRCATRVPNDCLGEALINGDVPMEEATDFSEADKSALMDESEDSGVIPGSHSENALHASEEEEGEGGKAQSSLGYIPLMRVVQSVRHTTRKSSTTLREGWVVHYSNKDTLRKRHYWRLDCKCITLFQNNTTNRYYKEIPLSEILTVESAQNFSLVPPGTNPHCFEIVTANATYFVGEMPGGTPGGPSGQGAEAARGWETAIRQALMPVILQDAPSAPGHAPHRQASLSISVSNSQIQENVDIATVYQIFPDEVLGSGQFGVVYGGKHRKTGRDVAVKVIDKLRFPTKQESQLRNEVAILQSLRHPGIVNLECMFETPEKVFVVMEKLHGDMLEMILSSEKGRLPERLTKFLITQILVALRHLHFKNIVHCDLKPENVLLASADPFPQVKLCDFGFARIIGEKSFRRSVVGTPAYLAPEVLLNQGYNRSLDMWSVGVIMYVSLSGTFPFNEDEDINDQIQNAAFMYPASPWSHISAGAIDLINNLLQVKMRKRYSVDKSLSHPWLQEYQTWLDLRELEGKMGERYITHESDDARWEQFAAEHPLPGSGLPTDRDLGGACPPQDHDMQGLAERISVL
Described as above. The settings on record: read-out: % Inhibition PKD2. The class given is biochemical.

The target in the next assay is T7, p38 (Homo sapiens, UniProt Q16539).
T7 construct: purchased Perkin Elmer (ProfilerPro assay kit 1)
T7 sequence (Q16539 whole entry): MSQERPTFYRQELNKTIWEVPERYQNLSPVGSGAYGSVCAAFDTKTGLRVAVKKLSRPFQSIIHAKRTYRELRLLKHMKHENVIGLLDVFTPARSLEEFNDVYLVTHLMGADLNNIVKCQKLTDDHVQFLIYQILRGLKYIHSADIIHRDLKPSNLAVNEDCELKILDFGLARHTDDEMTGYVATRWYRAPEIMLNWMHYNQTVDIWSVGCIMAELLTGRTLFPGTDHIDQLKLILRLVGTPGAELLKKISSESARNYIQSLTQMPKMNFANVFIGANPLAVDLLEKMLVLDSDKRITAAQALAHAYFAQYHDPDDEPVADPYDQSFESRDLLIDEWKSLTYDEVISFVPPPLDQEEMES
The description is as above. The class given is biochemical. Conditions: read-out: % Inhibition p38.

A further assay has as its target T8, MSK1 (Homo sapiens, UniProt O75582).
T8 construct: purchased Perkin Elmer (ProfilerPro assay kit 1)
Described as above. The class given is biochemical. Conditions: read-out: % Inhibition MSK1.

The target of a further assay is T9, AKT1 (Homo sapiens, UniProt P31749).
T9 construct: purchased Perkin Elmer ProfilerPro assay kit 1
T9 sequence (P31749 whole entry): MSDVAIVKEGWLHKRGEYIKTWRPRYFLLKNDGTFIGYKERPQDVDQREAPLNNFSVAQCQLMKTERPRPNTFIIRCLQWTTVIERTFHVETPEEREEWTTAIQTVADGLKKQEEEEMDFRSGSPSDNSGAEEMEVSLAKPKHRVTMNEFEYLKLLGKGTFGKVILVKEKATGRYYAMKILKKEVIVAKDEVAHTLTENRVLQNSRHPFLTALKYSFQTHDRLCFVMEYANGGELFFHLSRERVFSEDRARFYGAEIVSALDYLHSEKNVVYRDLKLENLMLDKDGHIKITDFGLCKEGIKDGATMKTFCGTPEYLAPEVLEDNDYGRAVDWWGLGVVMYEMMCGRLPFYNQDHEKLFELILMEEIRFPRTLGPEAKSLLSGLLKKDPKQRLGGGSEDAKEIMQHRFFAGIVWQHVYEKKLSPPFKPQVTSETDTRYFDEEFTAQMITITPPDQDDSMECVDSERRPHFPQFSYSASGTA
The assay is described as above. The class given is biochemical. The settings on record: read-out: % Inhibition AKT1.

A further assay concerns the target T10, MPS1 (Homo sapiens, UniProt P33981).
T10 sequence (P33981 1-857): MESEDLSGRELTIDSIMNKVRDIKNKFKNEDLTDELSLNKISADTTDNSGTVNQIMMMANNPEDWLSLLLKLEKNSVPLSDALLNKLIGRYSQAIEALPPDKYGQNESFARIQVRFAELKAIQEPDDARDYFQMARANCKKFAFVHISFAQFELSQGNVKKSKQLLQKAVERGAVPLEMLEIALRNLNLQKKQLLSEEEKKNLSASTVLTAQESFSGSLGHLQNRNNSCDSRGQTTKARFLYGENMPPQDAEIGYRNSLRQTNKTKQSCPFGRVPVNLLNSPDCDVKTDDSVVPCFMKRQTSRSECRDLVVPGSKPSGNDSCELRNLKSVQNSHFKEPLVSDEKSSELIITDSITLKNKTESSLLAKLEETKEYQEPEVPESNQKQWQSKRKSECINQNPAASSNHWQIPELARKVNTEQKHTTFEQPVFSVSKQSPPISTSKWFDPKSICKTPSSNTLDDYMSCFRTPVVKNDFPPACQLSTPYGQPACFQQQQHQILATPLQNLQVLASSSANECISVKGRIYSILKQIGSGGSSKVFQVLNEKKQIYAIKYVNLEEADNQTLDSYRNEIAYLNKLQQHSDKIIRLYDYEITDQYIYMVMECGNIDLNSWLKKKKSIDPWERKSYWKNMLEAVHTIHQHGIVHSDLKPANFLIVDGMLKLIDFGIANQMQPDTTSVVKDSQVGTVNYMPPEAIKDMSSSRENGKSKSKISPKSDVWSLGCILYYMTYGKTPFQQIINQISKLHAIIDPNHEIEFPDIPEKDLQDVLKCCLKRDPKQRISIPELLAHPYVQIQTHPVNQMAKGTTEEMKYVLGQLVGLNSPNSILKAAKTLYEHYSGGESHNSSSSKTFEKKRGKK
The experiment in a line: biochemical. The settings on record: read-out: % Inhibition MPS1.

The next assay concerns the target AurB (Homo sapiens, UniProt Q96GD4). The experiment in a line: 26-kinase panel mobility shift assay, single concentration. The class given is biochemical. Conditions: read-out: % Inhibition AurB.

Sequence of AurB (Q96GD4 whole entry): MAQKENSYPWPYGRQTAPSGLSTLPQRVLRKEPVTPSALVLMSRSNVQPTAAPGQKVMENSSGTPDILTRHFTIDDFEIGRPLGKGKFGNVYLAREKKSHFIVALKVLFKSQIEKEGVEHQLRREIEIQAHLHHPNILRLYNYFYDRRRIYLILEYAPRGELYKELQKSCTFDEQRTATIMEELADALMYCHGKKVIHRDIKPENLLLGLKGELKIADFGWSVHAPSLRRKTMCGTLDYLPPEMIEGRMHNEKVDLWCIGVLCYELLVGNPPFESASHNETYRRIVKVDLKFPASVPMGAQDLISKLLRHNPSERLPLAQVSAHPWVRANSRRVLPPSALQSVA
T8 sequence (O75582 whole entry): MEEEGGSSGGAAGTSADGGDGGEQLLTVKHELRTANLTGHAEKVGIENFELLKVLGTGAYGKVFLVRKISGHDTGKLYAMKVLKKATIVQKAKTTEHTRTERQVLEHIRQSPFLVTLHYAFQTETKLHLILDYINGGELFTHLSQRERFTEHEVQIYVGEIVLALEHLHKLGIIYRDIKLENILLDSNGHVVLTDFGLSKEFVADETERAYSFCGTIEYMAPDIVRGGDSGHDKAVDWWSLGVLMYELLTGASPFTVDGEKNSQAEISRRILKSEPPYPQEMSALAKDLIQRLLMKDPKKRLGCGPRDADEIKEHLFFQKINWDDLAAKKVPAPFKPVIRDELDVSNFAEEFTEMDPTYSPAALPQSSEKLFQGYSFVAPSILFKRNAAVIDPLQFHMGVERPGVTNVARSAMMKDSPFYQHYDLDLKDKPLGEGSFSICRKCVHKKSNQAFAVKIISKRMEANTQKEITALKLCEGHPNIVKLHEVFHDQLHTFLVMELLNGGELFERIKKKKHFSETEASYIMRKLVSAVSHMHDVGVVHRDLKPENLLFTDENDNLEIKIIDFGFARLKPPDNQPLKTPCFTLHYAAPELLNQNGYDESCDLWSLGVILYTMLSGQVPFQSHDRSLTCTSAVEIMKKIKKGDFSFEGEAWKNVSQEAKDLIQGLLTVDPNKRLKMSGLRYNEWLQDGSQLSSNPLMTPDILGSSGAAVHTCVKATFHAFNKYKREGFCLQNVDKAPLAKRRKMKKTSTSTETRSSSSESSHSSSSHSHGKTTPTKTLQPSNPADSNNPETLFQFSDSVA
T3 sequence (P06239 whole entry): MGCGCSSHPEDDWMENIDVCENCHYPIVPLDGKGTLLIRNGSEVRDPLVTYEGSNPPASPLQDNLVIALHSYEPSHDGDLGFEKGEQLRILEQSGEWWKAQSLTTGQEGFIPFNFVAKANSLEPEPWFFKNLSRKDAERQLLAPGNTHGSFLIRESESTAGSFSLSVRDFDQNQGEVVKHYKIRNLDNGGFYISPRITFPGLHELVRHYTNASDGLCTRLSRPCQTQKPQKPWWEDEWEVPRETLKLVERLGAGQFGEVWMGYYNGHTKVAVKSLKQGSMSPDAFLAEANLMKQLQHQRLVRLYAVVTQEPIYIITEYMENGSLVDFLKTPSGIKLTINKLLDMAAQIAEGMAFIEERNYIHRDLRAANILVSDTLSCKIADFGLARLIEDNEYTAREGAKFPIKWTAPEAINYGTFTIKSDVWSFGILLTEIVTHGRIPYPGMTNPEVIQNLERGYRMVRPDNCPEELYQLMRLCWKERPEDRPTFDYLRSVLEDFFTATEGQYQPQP
T1 sequence (P12931 whole entry): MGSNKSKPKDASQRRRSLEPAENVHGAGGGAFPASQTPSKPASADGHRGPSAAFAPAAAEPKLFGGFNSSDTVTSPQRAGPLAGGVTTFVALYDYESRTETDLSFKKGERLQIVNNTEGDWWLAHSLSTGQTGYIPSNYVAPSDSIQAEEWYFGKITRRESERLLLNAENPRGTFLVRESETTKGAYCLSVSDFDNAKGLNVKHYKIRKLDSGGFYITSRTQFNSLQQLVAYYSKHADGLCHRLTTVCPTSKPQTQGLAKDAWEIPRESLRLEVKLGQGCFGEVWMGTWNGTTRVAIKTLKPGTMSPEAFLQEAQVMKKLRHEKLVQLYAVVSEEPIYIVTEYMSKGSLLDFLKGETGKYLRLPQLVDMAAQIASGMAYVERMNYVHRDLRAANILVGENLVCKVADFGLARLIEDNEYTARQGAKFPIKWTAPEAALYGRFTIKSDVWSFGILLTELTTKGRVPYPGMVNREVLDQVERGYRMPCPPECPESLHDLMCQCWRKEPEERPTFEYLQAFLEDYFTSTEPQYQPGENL
Protocol for AKT1: Mobility Shift Assay Protocol
(§1) Screening of 26 kinases using a mobility shift assay
(§2) A mobility shift assay to determine kinase inhibition was carried out using a
(§3) modified version of the ProfilerPro assay kit 1 (Perkin Elmer, Coventry, UK)
(§4) including MPS1 and Aurora B. Each kit contained an enzyme plate, a substrate
(§5) plate, reconstitution buffer, 1 M DTT, protease inhibitor cocktail and termination
(§6) buffer. Test compounds were added as a solution in DMSO.
(§7) peptide phosphorylation assay was carried out as per the manufacturer’s
(§8) instructions. The electrophoretic separation and analysis of the phosphorylated
(§9) and non-phosphorylated peptides was carried out on a 4-sipper chip using a
(§10) LabChip EZReader II (Perkin Elmer). Results were expressed as % inhibition of
(§11) peptide phosphorylation relative to control wells for 0 % (no test compound) and
(§12) 100 % (no ATP) inhibition. The percentage inhibition was calculated using the
(§13) % Inhibition = [1 - (% Conversion Sample / % Conversion 0% Inhibition Control)] x 100
Protocol for AKT2: (§14) In order to test the biochemical activity of our fragment library, a panel of 26 structurally diverse protein kinases was used.
as §1, §2, §3, §4, §5, §6, §7, §8, §9, §10, §11, §12, §13
Protocol for AurB: Mobility Shift Assay Protocol
as §1, §2, §3, §4, §5, §6, §7, §8, §9, §10, §11, §12, §13
Protocol for Erk1: as §2, §3, §4, §5, §6, §7, §8, §9, §10, §11, §12, §13
Protocol for LCK: as §2, §3, §4, §5, §6, §7, §8, §9, §10, §11, §12, §13
Protocol for MPS1: as §14, §1, §2, §3, §4, §5, §6, §7, §8, §9, §10, §11, §12, §13
Protocol for MSK1: as §14
Mobility Shift Assay Protocol
as §1, §2, §3, §4, §5, §6
final concentration. […] The
as §7, §8, §9, §10, §11, §12, §13
Protocol for PKD2: as §14, §1, §2, §3, §4, §5, §6, §7, §8, §9, §10, §11, §12, §13
Protocol for PRAK: as §2, §3, §4, §5, §6
final concentration. […] The
as §7, §8, §9, §10, §11, §12, §13
Protocol for SRC: as §14, §1, §2, §3, §4, §5, §6, §7, §8, §9, §10, §11, §12, §13
Protocol for p38: as §14
Mobility Shift Assay Protocol
as §1, §2, §3, §4, §5, §6
final concentration. […] The
as §7, §8, §9, §10, §11, §12, §13

With `Nc1ccc[nH]c1=O` [Compound 1, 3-aminopyridin-2-one], the inhibition at 100 µM at SRC turned out to be 31%; at PRAK, 19%; at LCK, 4%; on AKT2, 77%; at Erk1, 9%; on PKD2 it was 10%. For the same compound, the inhibition at 100 µM on p38 was found to be 9%; at MSK1, 26%; on AKT1, 42%; at MPS1, 0%; on AurB, 20%.

As to `Cn1cc(-c2c[nH]c(=O)c(N)c2)cn1` [Compound 2, 3-Amino-5-(1-methyl-1H-pyrazol-4-yl)pyridin-2(1H)-one], the inhibition at 100 µM on SRC turned out to be 86%; at PRAK it was 99%; at LCK it was 11%; at AKT2, 97%; at Erk1 it was 62%; on PKD2 it was 67%. Further, the inhibition at 100 µM at p38 was determined as 39%; at MSK1, 95%; at AKT1, 97%; at MPS1 (compound at 100 µM), 41%; on AurB, 96%.

`COc1ncc(-c2ccncc2)cc1N` [Compound 5, 6-Methoxy-3,4′-bipyridin-5-amine]: the inhibition at 100 µM at SRC was determined as 8%; on PRAK it was 1%; on LCK, 7%; at AKT2 it was 4%; on Erk1, 20%; on PKD2 it was 26%. The inhibition at 100 µM at p38 was 0%; on MSK1, 61%; at AKT1, 22%; on MPS1 (compound at 100 µM) it was 41%; on AurB, 35%.

With `Nc1cc(-c2ccnc3ccccc23)c[nH]c1=O` [Compound 6], the inhibition at 100 µM at SRC came out at 24%; at PRAK, 15%; at LCK, 40%; on AKT2 it was 9%; at Erk1, 22%; at PKD2 it was 36%. Besides, the inhibition at 100 µM at p38 came to 0%; at MSK1, 22%; on AKT1, 15%; on MPS1 (compound at 100 µM) it was 69%; on AurB it was 61%.

On to `CNc1nccc(-c2c[nH]c(=O)c(N)c2)n1` [Compound 7], for which the inhibition at 100 µM stood at 89% at SRC; 88% at PRAK; 55% on LCK; 93% at AKT2; 52% at Erk1; 70% on PKD2. The inhibition at 100 µM turned out to be 25% on p38; 94% on MSK1; 89% at AKT1; 71% on MPS1 (compound at 100 µM); 94% at AurB.

With `Nc1cc(-c2ccnc(NC3CC3)n2)c[nH]c1=O` [Compound 8], the inhibition at 100 µM at SRC was found to be 46%; at PRAK, 24%; on LCK, 38%; on AKT2 it was 18%; at Erk1, 46%; on PKD2 it was 81%. The inhibition at 100 µM on p38 turned out to be 12%; on MSK1, 27%; on AKT1 it was 18%; at MPS1 (compound at 100 µM), 87%; at AurB, 79%.

For the compound `Cc1nc(O)c(N)cc1-c1ccncc1` [Compound 15, 3-Amino-6-methyl-5-(pyridin-4-yl)pyridin-2-one], the inhibition at 100 µM at SRC amounted to 21%; at PRAK it was 24%; at LCK, 4%; at AKT2 it was 17%; at Erk1, 11%; on PKD2, 8%. The inhibition at 100 µM came to 8% at p38; 14% on MSK1; 10% at AKT1; 20% on MPS1 (compound at 100 µM); 77% at AurB.
